Like-named read-outs stand apart in the source and are kept apart here.
Legend:
[1] = test system: Klebsiella pneumoniae; assay: microbe, parasite or virus in culture; format: cell-based; conditions: CAA without human serum
[2] = test system: Acinetobacter baumannii; assay: microbe, parasite or virus in culture; format: cell-based
[3] = Stability assessment in 100% CAA; format: in vitro ADME; set-up: unit not given beside the values
Procedure: Stability was assessed after incubation in 100% human serum at 37° C. after 10 minutes, 1 hour, and 2 hours.
Stability assessment was further conducted in 100% CAA and rabbit serum using the same methodology discussed above.

[4] = test system: Escherichia coli; assay: microbe, parasite or virus in culture; format: cell-based
Procedure, shortened: (§1)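 Medium: CAA with added human serum. Peptides tested for minimal inhibitory concentration against each strain.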

[5] = test system: Enterobacter cloacae; assay: microbe, parasite or virus in culture; format: cell-based
Procedure, shortened: as §1

[6] = test system: S. maltophilia; assay: MIC against S. maltophilia isolates; format: cell-based, Stenotrophomonas maltophilia; conditions: S. maltophilia isolates (n per peptide in table)
Procedure, shortened: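 MIC in μg/mL for Chp peptides across several S. maltophilia isolates, n denoting the number of isolates tested.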

[7] = test system: M. intracellulare; assay: 45 hr MIC against M. intracellulare (NTM); format: cell-based, Mycobacterium intracellulare; conditions: M. intracellulare (Cuttino and McCabe) Runyon ATCC 13950
[8] = test system: P. aeruginosa strain CFS-1292; assay: MIC at pH 6, pH 7 and pH 8; format: cell-based, Pseudomonas aeruginosa
Procedure: The Chp peptides were further evaluated at varying pH levels. The MIC values were determined at pH 6, pH 7, and pH 8 for 18 different Chp peptides against P. aeruginosa strain CFS-1292. […]

[9] = test system: M. scrofulaceum; assay: 45 hr MIC against M. scrofulaceum (NTM); format: cell-based, Mycobacterium scrofulaceum; conditions: M. scrofulaceum Prissick and Masson ATCC 19981
[10] = test system: P. aeruginosa strain CFS-1292; assay: MIC in presence of divalent cations (calcium chloride, magnesium sulfate); format: cell-based, Pseudomonas aeruginosa
Procedure: Next, Chp peptides were evaluated in the presence of different divalent cations. […]; (2) in the presence of 2 mM calcium chloride alone; (3) in the presence of 1 mM magnesium sulfate alone; and (4) in the presence of both 2 mM calcium chloride and 1 mM magnesium sulfate. […]

[11] = test system: M. avium; assay: 45 hr MIC against M. avium (NTM); format: cell-based, Mycobacterium avium; conditions: M. avium Chester ATCC 700898
[12] = test system: Klebsiella pneumoniae; format: cell-based
Procedure: (§2) Determination of Minimal Inhibitory Concentrations (MIC).
Additional MIC testing was performed for several peptides against the ESKAPE pathogens Escherichia coli, Enterobacter cloacae, Klebsiella pneumoniae, and Acinetobacter baumannii, in CAA supplemented with human serum (Table D).

[13] = test system: Pseudomonas aeruginosa; assay: microbe, parasite or virus in culture; format: cell-based; conditions: for MIC: CAA without human serum
[14] = test system: carbapenem-resistant P. aeruginosa clinical isolate CFS-1292; assay: MIC by modified CLSI broth microdilution against P. aeruginosa CFS-1292 (CAA, CAA + human serum); format: cell-based, Pseudomonas aeruginosa
[15] = test system: carbapenem-resistant bacterial strains; assay: organism not typed; format: cell-based
Source text: as §2

[16] = test system: Mycobacterium tuberculosis strains
Procedure: MIC values for various Chp peptides were determined using the CLSI method for broth microdilution in 96-well microtiter format.
Next, MIC values for various Chp peptides were determined using the CLSI method above for broth microdilution in 96-well microtiter format for two different Mycobacterium tuberculosis strains. The MIC was determined as explained above for the NTM strains.

[17] = test system: M. kansasii Hauduroy ATCC 12478; assay: 45 hr MIC against M. kansasii (NTM), Mueller Hinton broth; format: cell-based, Mycobacterium kansasii
[18] = A. baumannii isolates (n per peptide in table)
[19] = E. coli isolates (n per peptide in table)
[20] = E. cloacae isolates (n per peptide in table)
[21] = K. pneumoniae isolates (n per peptide in table)
[22] = P. aeruginosa isolates (n per peptide in table)

Work on “MVRRRRLRRRISRRIFRRTVARVGRRRRSFRGGIRF [Chp1]” yielded an MIC ([1]; Klebsiella pneumoniae (ATCC 10031, MIC control strain), RSC 814) of 16 mg/L, an MIC ([1]; Klebsiella pneumoniae (g2-3 HM35K), RSC 1138) of 16 mg/L and an MIC ([1]; Klebsiella sp. (HM-44; colon, Crohn's disease), RSC 1139) of 8 mg/L. For the same sequence, the MIC ([1]; Klebsiella spp. (HM-223; gut of Crohn's disease patient), RSC 1131) was 8 mg/L, the MIC50 [2, 18] was 2 mg/L and the MIC100 [2, 18] was 4 mg/L. For the same sequence, the “MIC Range” value [2, 18] was 1 to 4 mg/L, the MIC ([2]; Acinetobacter baumannii (clinical isolate HSS), RSC 30, CAA without human serum) was 8 mg/L and the MIC ([2]; Acinetobacter baumannii (clinical isolate HSS), RSC 32, CAA without human serum) was 8 mg/L. The MIC ([2]; Acinetobacter baumannii ATCC BAA 747, CAA supplemented with human serum) was 2 mg/L, the “MIC (100% CAA)” value [3] was 0.5 and the MIC ([4]; E. coli (ATCC 25922, MIC control strain), RSC 813, CAA without human serum) was 8 mg/L. For the same sequence, the MIC ([4]; E. coli (HM346, colon, Crohn's disease), RSC 1212, CAA without human serum) was 8 mg/L, the MIC50 [4, 19] was 2 mg/L and the MIC100 [4, 19] was 4 mg/L. For the same sequence, the “MIC Range” value [4, 19] was 1 to 4 mg/L, the MIC ([4]; Escherichia coli ATCC 25922, CAA supplemented with human serum) was 2 mg/L and the MIC50 [5, 20] was 2 mg/L. The MIC100 [5, 20] was 4 mg/L, the “MIC Range” value [5, 20] was 2 to 4 mg/L and the MIC ([5]; Enterobacter cloacae (ATCC 13047, MIC control strain), RSC 1240, CAA without human serum) was 8 mg/L. It also gave an MIC ([5]; Enterobacter cloacae ATCC 13047, CAA supplemented with human serum) of 4 mg/L, an MIC50 [6] of 2 mg/L and an MIC100 [6] of 4 mg/L. For the same sequence, the “MIC Range” value [6] was 1 to 8 mg/L, the “45 hr MIC” value [7] was 4 mg/L and the MIC ([8]; CAA media (pH 7)) was 1 mg/L. For the same sequence, the MIC ([8]; pH 6) was 0.5 mg/L, the MIC ([8]; pH 7) was 1 mg/L and the MIC ([8]; pH 8) was 1 mg/L. The “45 hr MIC” value [9] was 4 mg/L, the MIC ([10]; CAA media + 1 mM MgSO4) was 1 mg/L and the MIC ([10]; CAA media + 2 mM CaCl2) was 2 mg/L. The MIC ([10]; CAA media + + 1 mM MgSO4) was 1 mg/L, the MIC ([10]; CAA media alone) was 1 mg/L and the “45 hr MIC” value [11] was 4 mg/L. The MIC50 [12, 21] was 2 mg/L, the MIC100 [12, 21] was 2 mg/L and the “MIC Range” value [12, 21] was 1 to 4 mg/L. It also gave an MIC ([12]; Klebsiella pneumoniae HM-44, CAA supplemented with human serum) of 1 mg/L, an MIC ([13]; P. aeruginosa 453 (Human clinical isolate, HSS), RSC 1292) of 8 mg/L and an MIC ([13]; P. aeruginosa (ATCC 14213, human hip wound), RSC 1111) of 8 mg/L. It also gave an MIC ([13]; P. aeruginosa (ATCC 15152, abscess in middle ear), RSC 1110) of 4 mg/L, an MIC ([13]; P. aeruginosa (ATCC 15692, infected wound), RSC 489) of 4 mg/L and an MIC ([13]; P. aeruginosa (ATCC 15692, infected wound), RSC 1115) of 8 mg/L. The MIC ([13]; P. aeruginosa (ATCC 17646, human liver abscess), RSC 1109) was 8 mg/L, the MIC ([13]; P. aeruginosa (ATCC 19142, tracheobronchial secretion), RSC 1108) was 8 mg/L and the MIC ([13]; P. aeruginosa (ATCC 25102, bacteriophage host), RSC 1114) was 8 mg/L. It also gave an MIC ([13]; P. aeruginosa (ATCC 27853, MIC control strain), RSC 815) of 8 mg/L, an MIC ([13]; P. aeruginosa (ATCC BAA-27, lab strain), RSC 1113) of 8 mg/L and an MIC ([13]; P. aeruginosa (PAO1, alternate source, HER1018), RSC 490) of 8 mg/L. The MIC50 [13, 22] was 2 mg/L, the MIC100 [13, 22] was 4 mg/L and the “MIC Range” value [13, 22] was 1 to 4 mg/L. The “MIC (μg/mL) against CFS-1292 in 100% CAA (1st run/2nd run)” value ([14]; 100% CAA, 1st run or single value) was 1 µg/mL, the “MIC (μg/mL) against CFS-1292 in CAA + […] human serum” value ([14]; CAA + […] human serum) was 1 µg/mL and the MIC ([15]; carbapenem-resistant isolate PA19) was 2 mg/L. It also gave an MIC ([15]; carbapenem-resistant isolate PA20) of 4 mg/L, an MIC ([15]; carbapenem-resistant isolate PA21) of 4 mg/L and an MIC ([15]; carbapenem-resistant isolate PA22) of 4 mg/L. The MIC ([15]; carbapenem-resistant isolate PA23) was 4 mg/L, the MIC ([15]; carbapenem-resistant isolate PA24) was 4 mg/L and the MIC ([15]; carbapenem-resistant isolate WLC-452) was 2 mg/L. The MIC ([16]; Mycobacterium tuberculosis (Zopf) Lehmann and Neumann ATCC 25177) was 64 mg/L, the MIC ([16]; Mycobacterium tuberculosis (Zopf) Lehmann and Neumann ATCC 35817) was 32 mg/L and the “45 hr MIC” value [17] was 4 mg/L.

Source: patent publication US20220401514A1, “ANTIMICROBIAL, BACTERIOPHAGE-DERIVED POLYPEPTIDES AND THEIR USE AGAINST GRAM-NEGATIVE AND ACID-FAST BACTERIA” (CONTRAFECT CORPORATION, priority 2019, published 2022)
